Patent publication EP3363436A1, “AGENT FOR TREATING PARASITIC WORM DISEASES” (Haas, Helmut, priority 2017, dated 2018)

Tested on: S. mansoni
Test: Drug testing on schistosomes in vitro (incubation of cultured worms with the substance, morphological assessment)
Type: cell-based
From the text: Mirazidien für die Infektion von Wasserschnecken (Biomphalaria glabrata, Stamm Puerto Rico) wurden mittels Standardverfahren aus Gewebe (Leber, Darm) von Syrischen Goldhamstern bzw. Mäusen gewonnen, die mit S. mansoni (Liberian strain bzw. Brasilian strain) infiziert worden waren. Hierzu wurde das Gewebe (freundlicherweise zur Verfügung gestellt von Prof. Dr. Grevelding, Universität Gießen bzw. von Dr. Sombetzki, Universität Rostock) mechanisch zerkleinert und die darin enthaltenen Wurmeier mittels Enzymverdau aus dem Gewebeverband herausgelöst. Nach Zugabe von H2O zu dem Gewebspräzipitat schlüpfen aus den Eiern die Mirazidien. Die Infektion erfolgte separat für jede Schnecke mit 4-7 Mirazidien. Da Licht für die Zerkarien der Schlüsselreiz zum Verlassen der Schnecke ist, wurden die Schnecken in der vierten Woche nach Infektion dunkel gestellt, um ein vorzeitiges Ausschwärmen von Zerkarien zu unterbinden.
6-7 Wochen nach Infektion wurden die infizierten Schnecken aus Beispiel 1 in Wasser mittels einer 60-Watt Glühlampe von oben belichtet, da ab diesem Zeitpunkt Zerkarien die infizierten Schnecken in ausreichender Menge verlassen. Während einer Belichtungsdauer von 2-3 Stunden wurden die aufschwimmenden Zerkarien gesammelt. Nach wiederholtem Waschen und Überführen in Medium erfolgte die Transformation der Zerkarien mechanisch nach Standardverfahren. Dazu erfolgten wiederholte Passagen durch eine Emulsionsnadel, an die zwei Spritzen angeschlossen sind. Die durch die Transformation aus den Zerkarien (Gabelschwanzlarven) entstandenen Schistosomula wurden ebenfalls wiederholt in Medium gewaschen und dabei von den abgescherten Schwänzen getrennt.
Die transformierten Schistosomula wurden nach dem von Basch beschriebenen Verfahren kultiviert (Basch (1981), J Parasitol.; 67: 179-185), wobei das Verfahren leicht modifiziert wurde, wie es bei Reimers beschrieben wurde (Reimers et al. (2015), PLoS Negl Trop Dis 9(3): e0003593). […]

Structure (SMILES)	Abtöten von Schistosomen (in vitro, Schistosomula, juvenile and adult worms, initially 10 µM (Figures 1-2: 10, 20, 40 µM), 24 h exposure then wash-out, assessed at 4 h, 24 h, 48 h, 72 h and 7 days)	morphologische Veränderungen und Schädigung der Würmer (incubation of parasitic worms with Felodipin in vitro)	Verstärkung der Wirkung von Felodipin (Loperamid given together with Felodipin, in vitro)
CCOC(=O)C1=C(C)NC(C)=C(C(=O)OC)C1c1cccc(Cl)c1Cl (racemic) [Felodipin]	hochwirksam Schistosomen abtöten	erheblichen morphologischen Veränderungen und irreversiblen Schädigung der Würmer	
CN(C)C(=O)C(CCN1CCC(O)(c2ccc(Cl)cc2)CC1)(c1ccccc1)c1ccccc1 [Loperamid, 4-[4-(4-Chlorphenyl)-4-hydroxypiperidin-1-yl]-N,N-dimethyl-2,2-diphenylbutyramid]			verstärkt Loperamid die Wirkung von Felodipin signifikant
